Assay results: US20220288048A1, “PIMAVANSERIN FOR TREATING SCHIZOPHRENIA OR FOR TREATING PSYCHOSIS SECONDARY TO NEURODEGENERATIVE DISORDERS OR DEPRESSIVE DISORDER” (ACADIA Pharmaceuticals Inc., priority 2019, published 2022)
“Also recorded” adds a separate entry of the source.

Columns and labels:
[1] = system: scPCP+ARS(2h) treated male C57BL/6J mice; experiment: 10-min social interaction test in scPCP-treated mice given 2 h acute restraint stress (treatment-resistant model); type: in vivo; details: risperidone 0.2, olanzapine 1, aripiprazole 1 or pimavanserin 3 mg/kg ip alone, 45 min prior to test
Experimental: Briefly, mice were habituated to the test arena (i.e., the NOR box) for 30 minutes prior to the test day. Pairs of mice, unfamiliar to each other, received either the same treatment (e.g., vehicle and vehicle; N=10 pairs) or different treatments (e.g., vehicle; N=10 and phencyclidine (PCP) 10 mg/kg; N=10). After washout, they were placed in the test arena together for 10 minutes. A heavy object made of Plexiglas or metal was placed in the center of the test arena to quantify the time and nature of interaction of the test animals with an unfamiliar object or an unfamiliar animal. After the 10 min test phase, the object and the arena were cleaned with 70% ethanol to remove any olfactory trails. Behavior was recorded on video for subsequent blind scoring.
The following four behaviors were scored for each animal: • a) Sniffing: A normal mouse engages in sniffing the con-specific mouse's body, including the anogenital area • b) Following: A normal mouse pursues a con-specific mouse around the arena • c) Avoiding: A normal mouse avoids the con-specific mouse and move away from a pursuing mouse if approached • d) Object Exploration: A normal mouse explores the object that is placed in the center of the test arena.
Acute restraint stress (ARS) protocol: Mice were assigned to one of two groups: either the control group (non-stress) or the stress group. Generally, mice of the stress group were restrained in well-ventilated 50 mL tubes. After the restraint period of 1 or 2 hours, the mice were transferred into a clean animal housing cage for 1-hour interval and thereafter went through the first social interaction test (different mice are used to test different groups).
Treatment resistant animal model: To establish this model, Acute restraint stress (ARS) was added to scPCP treatment. Two groups (vehicle+ARS; scPCP+ARS) and their controls (vehicle+saline; scPCP+saline) were used. ARS was applied for 1 or 2 hours and tested on SI 1 hour post-ARS.
The behavioral assay, ARS protocol, and scPCP-treatment as described in Example 2 were used. To test the effect of atypical APD and pimavanserin, alone or as con-administration, in scPCP-treated mice (N=10 pairs of mice per group) given 2 h ARS, risperidone (“Risp”) was administered as 0.2 mg/kg or 0.4 mg/kg ip; olanzapine (“Olan”) as 1.0 mg/kg ip; aripiprazole (“Aripi”) as 1.0 mg/kg ip; and pimavanserin (“Pim”) as 3 mg/kg ip to scPCP+ARS(2h) treated male C57BL/6J mice 45 minutes prior to the commencement of the social interaction task in the 10 min social interaction test. Plasma levels of risperidone were measured using a Triple Quad 6500+ mass spectrometer.

[2] = system: subjects with schizophrenia who have predominant negative symptoms; experiment: Phase 2, 26-week adjunctive pimavanserin study: safety; type: in vivo, human; details: 26-week study
Experimental: This study is conducted as a Phase 2, 26-week, randomized, double-blind, placebo-controlled, multicenter, multinational outpatient study in subjects with schizophrenia who have predominant negative symptoms while on adequate treatment with an antipsychotic. Schizophrenia is defined by the Diagnostic and Statistical Manual of Mental Disorders, Fifth Edition (DSM-5), confirmed by a customized module of the Structured Clinical Interview for DSM-5, Clinical Trials Version (SCID-5-CT). This study enrolls approximately 403 subjects with predominant negative symptoms of schizophrenia. In the study, patients were randomized to receive either pimavanserin or placebo added to their current background antipsychotic treatment for 26 weeks in duration. At baseline all patients were started on a daily dose of 20 mg of pimavanserin or placebo with dose adjustments allowed up to 34 mg or down to 10 mg during the first eight weeks of treatment. […]
Safety will be evaluated by analyses of adverse events, vital signs, ECGs, physical examination results, and clinical laboratory tests (including urinalysis), and the Abnormal Involuntary Movement Scale (AIMS), the Barnes Akathisia Rating Scale (BARS), the Simpson-Angus Extrapyramidal Side Effects Scale (SAS), and the Columbia Suicide Severity Rating Scale (C-SSRS).

Question: For `CC(C)COc1ccc(CNC(=O)N(Cc2ccc(F)cc2)C2CCN(C)CC2)cc1` [Pimavanserin, N-(4-Fluorophenylmethyl)-N-(1-methylpiperidin-4-yl)-N′-(4-(2-methylpropyloxy)phenylmethyl)carbamide], which “Able to restore sniffing or decrease avoidance (SI deficit), drug alone” value [1] is on record?
Answer: Its value is “Neither; also recorded: ineffective”.

Question: And the “Vital signs, weight, metabolic syndrome, and extrapyramidal symptoms compared to adjunctive placebo” value [2]?
Answer: Its value is “did not result in clinically significant differences”.

Question: What about the “Rate of adverse events” value ([2]; adjunctive pimavanserin) of the same compound?
Answer: The value was 40%.
